# Assay results: US10227331B2 (priority 2015, dated 2019)
# Columns and labels:
# [1] = target: IMP-1 (Serratia marcescens, UniProt P52699); assay: biochemical; type: biochemical; conditions: CCF2-FA substrate, 2 hours at 25° C; read-out: IMP-1 IC50
# How it was run: (§1)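 Fluorescence assay of metallo-β-lactamase activity using CCF2-FA, a cephalosporin-linked 7-hydroxycoumarin–fluorescein substrate. Inhibitor, enzyme and substrate were incubated together for 2 hours at 25° C. IC50 came from a 4-parameter fit of inhibition versus inhibitor concentration.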
# [2] = target: NDM-1 (Klebsiella pneumoniae, UniProt C7C422); assay: biochemical; type: biochemical; conditions: CCF2-FA substrate, 2 hours at 25° C; read-out: NDM-1 IC50
# How it was run: as §1
# [3] = target: VIM-1 (Pseudomonas aeruginosa (strain ATCC 15692 / DSM 22644 / CIP 104116 / JCM 14847 / LMG 12228 / 1C / PRS 101 / PAO1), UniProt A0A0F7KYQ8); assay: biochemical; conditions: CCF2-FA substrate, 2 hours at 25° C
# How it was run: as §1
# [4] = tested on: Escherichia coli expressing NDM-1 (CLB30005, CLB30016); type: cell-based; conditions: NDM-1 (CLB30016), with imipenem 1 μg/ml, 95% inhibition of bacterial growth
# How it was run: (§2)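 Clinical strains grown overnight on blood agar, then diluted 1:100 in 1.1× CAMHB and exposed to test compound with imipenem at 1 μg/ml. Incubation was 22–24 h at 35° C; growth was read by absorbance to find the compound concentration restoring imipenem susceptibility.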
# [5] = tested on: Klebsiella pneumoniae expressing VIM-1 (IHMA599644); type: cell-based; conditions: VIM-1 (IHMA599644), with imipenem 1 μg/ml, 95% inhibition of bacterial growth
# How it was run: as §2
# [6] = tested on: Serratia marcescens expressing IMP-1 (CL5741); type: cell-based; conditions: IMP-1 (CL5741), with imipenem 1 μg/ml, 95% inhibition of bacterial growth
# How it was run: as §2
# [7] = tested on: P. aeruginosa expressing IMP-1, efflux+ (MB9798); type: cell-based, Pseudomonas aeruginosa; conditions: for P. aeruginosa expressing IMP-1, efflux+ (MB9798) MITC95: imipenem at 2 μg/mL, in the presence of a class A, C, D serine β-lactamase inhibitor closely related to relebactam; for Efflux ratio: ratio MITC95 PA_9798/MITC95 PA_9799
# Excerpt: (§3) The strain background is Pseudomonas aeruginosa PAO1.
# [8] = tested on: P. aeruginosa expressing IMP-1, efflux− (MB9799); assay: Efflux: concentration of MBL inhibitor which restores susceptibility to imipenem; type: cell-based, Pseudomonas aeruginosa; conditions: imipenem at 2 μg/mL, in the presence of a class A, C, D serine β-lactamase inhibitor closely related to relebactam
# Excerpt: as §3
# Sequence of NDM-1 (C7C422 whole entry, looked up, species assumed): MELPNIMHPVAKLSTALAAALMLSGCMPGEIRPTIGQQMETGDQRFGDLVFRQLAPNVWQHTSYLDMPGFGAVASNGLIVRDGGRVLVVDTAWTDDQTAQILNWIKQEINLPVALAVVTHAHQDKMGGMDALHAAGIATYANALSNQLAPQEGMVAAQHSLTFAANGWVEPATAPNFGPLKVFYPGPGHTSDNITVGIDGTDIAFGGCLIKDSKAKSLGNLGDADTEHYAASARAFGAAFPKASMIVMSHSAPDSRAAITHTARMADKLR
# Sequence of IMP-1 (P52699 whole entry, looked up, species assumed): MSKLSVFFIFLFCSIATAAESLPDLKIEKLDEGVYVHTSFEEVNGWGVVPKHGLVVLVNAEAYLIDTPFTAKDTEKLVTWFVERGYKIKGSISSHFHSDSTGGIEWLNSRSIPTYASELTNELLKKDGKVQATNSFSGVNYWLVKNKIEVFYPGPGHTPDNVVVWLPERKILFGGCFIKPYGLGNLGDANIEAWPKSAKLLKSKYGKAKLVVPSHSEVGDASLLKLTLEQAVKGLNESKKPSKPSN
smiles,measurement,setting,value
"CCCn1c(N)nc2c(-c3ccc(S(=O)(=O)C4CNC4)c(S(N)(=O)=O)c3-c3nn[nH]n3)cccc21 [Example 289, 3-(2-amino-1-propyl-1H-benzo[d]imidazol-4-yl)-6-(azetidin-3-ylsulfonyl)-2-(2H-tetrazol-5-yl)benzenesulfonamide]",IC50,[1],0.299 nM
same,IC50,[2],0.12 nM
same,IC50,[3],0.407 nM
same,Escherichia coli MITC95,[4],0.3906 µM
same,Klebsiella pneumoniae MITC95,[5],3.125 µM
same,Serratia marcescens MITC95,[6],1.563 µM
same,"P. aeruginosa expressing IMP-1, efflux+ (MB9798) MITC95",[7],12.5 µM
same,Efflux ratio,[7],8.00
same,"P. aeruginosa expressing IMP-1, efflux− (MB9799) MITC95",[8],1.563 µM
"NS(=O)(=O)c1c(S(=O)(=O)[C@H]2CCNC2)ccc(-c2cccc3nc(C(=O)O)[nH]c23)c1-c1nn[nH]n1 [Example 290, 7-(4-((S)-pyrrolidin-3-ylsulfonyl)-3-sulfamoyl-2-(2H-tetrazol-5-yl)phenyl)-1H-benzo[d]imidazole-2-carboxylic Acid]",IC50,[1],2.96 nM
same,IC50,[2],0.472 nM
same,IC50,[3],0.5 nM
same,Escherichia coli MITC95,[4],3.125 µM
same,Klebsiella pneumoniae MITC95,[5],3.125 µM
same,Serratia marcescens MITC95,[6],3.125 µM
same,"P. aeruginosa expressing IMP-1, efflux+ (MB9798) MITC95",[7],6.25 µM
same,Efflux ratio,[7],4.00
same,"P. aeruginosa expressing IMP-1, efflux− (MB9799) MITC95",[8],1.563 µM
"Nc1nc2c(-c3ccc(S(=O)(=O)[C@H]4CN[C@H](CO)C4)c(S(N)(=O)=O)c3-c3nn[nH]n3)cccc2[nH]1 [Example 291, 3-(2-amino-1H-benzo[d]imidazol-4-yl)-6-((3R,5S)-5-(hydroxymethyl)pyrrolidin-3-ylsulfonyl)-2-(2H-tetrazol-5-yl)benzenesulfonamide]",IC50,[1],0.959 nM
same,IC50,[2],0.195 nM
same,IC50,[3],0.54 nM
same,Escherichia coli MITC95,[4],0.7813 µM
same,Klebsiella pneumoniae MITC95,[5],1.563 µM
same,Serratia marcescens MITC95,[6],0.7813 µM
same,"P. aeruginosa expressing IMP-1, efflux+ (MB9798) MITC95",[7],0.7813 µM
same,Efflux ratio,[7],1.00
same,"P. aeruginosa expressing IMP-1, efflux− (MB9799) MITC95",[8],0.7813 µM
"Nc1nc2c(-c3ccc(S(=O)(=O)[C@H]4CN[C@H](CO)C4)c(S(N)(=O)=O)c3-c3nn[nH]n3)cccc2s1 [Example 292, 3-(2-aminobenzo[d]thiazol-4-yl)-6-((3R,5S)-5-(hydroxymethyl)pyrrolidin-3-ylsulfonyl)-2-(2H-tetrazol-5-yl)benzenesulfonamide]",IC50,[1],0.27 nM
same,IC50,[2],0.161 nM
same,IC50,[3],0.332 nM
same,Escherichia coli MITC95,[4],3.125 µM
same,Klebsiella pneumoniae MITC95,[5],3.125 µM
same,Serratia marcescens MITC95,[6],1.563 µM
same,"P. aeruginosa expressing IMP-1, efflux+ (MB9798) MITC95",[7],1.563 µM
same,Efflux ratio,[7],1.00
same,"P. aeruginosa expressing IMP-1, efflux− (MB9799) MITC95",[8],1.563 µM
"NC[C@H](N)CS(=O)(=O)c1ccc(-c2cccc3[nH]c(N)nc23)c(-c2nnn[nH]2)c1S(N)(=O)=O [Example 293, 3-(2-amino-1H-benzo[d]imidazol-4-yl)-6-((S)-2,3-diaminopropylsulfonyl)-2-(1H-tetrazol-5-yl)benzenesulfonamide]",IC50,[1],1.31 nM
same,IC50,[2],0.157 nM
same,IC50,[3],0.465 nM
same,Escherichia coli MITC95,[4],0.3906 µM
same,Klebsiella pneumoniae MITC95,[5],1.563 µM
same,Serratia marcescens MITC95,[6],1.563 µM
same,"P. aeruginosa expressing IMP-1, efflux+ (MB9798) MITC95",[7],0.7813 µM
same,Efflux ratio,[7],1.00
same,"P. aeruginosa expressing IMP-1, efflux− (MB9799) MITC95",[8],0.7813 µM
"C[C@H](N)CS(=O)(=O)c1ccc(-c2cccc3[nH]c(C(=O)O)nc23)c(-c2nn[nH]n2)c1S(N)(=O)=O [Example 294, 4-(4-((S)-2-aminopropylsulfonyl)-3-sulfamoyl-2-(2H-tetrazol-5-yl)phenyl)-1H-benzo[d]imidazole-2-carboxylic Acid]",IC50,[1],0.35 nM
same,IC50,[2],0.0827 nM
same,IC50,[3],0.184 nM
same,Escherichia coli MITC95,[4],1.563 µM
same,Klebsiella pneumoniae MITC95,[5],3.125 µM
same,Serratia marcescens MITC95,[6],3.125 µM
same,"P. aeruginosa expressing IMP-1, efflux+ (MB9798) MITC95",[7],1.563 µM
same,Efflux ratio,[7],1.00
same,"P. aeruginosa expressing IMP-1, efflux− (MB9799) MITC95",[8],1.563 µM
